Values after ≈ are worked out from the molar mass of the structure shown.
Key:
[1] = molecular target: T1, Protein cereblon/Cyclin-dependent kinase 9 (Homo sapiens, UniProt P50750+Q96SW2); experiment: PROTAC activity at CRBN/CDK9 in human NCI-H69 cells assessed as induction of CDK9 degradation at 10 nM by Western blot analysis relative to control; assay type: cell-based
Target sequence in this assay (P50750 whole entry, looked up): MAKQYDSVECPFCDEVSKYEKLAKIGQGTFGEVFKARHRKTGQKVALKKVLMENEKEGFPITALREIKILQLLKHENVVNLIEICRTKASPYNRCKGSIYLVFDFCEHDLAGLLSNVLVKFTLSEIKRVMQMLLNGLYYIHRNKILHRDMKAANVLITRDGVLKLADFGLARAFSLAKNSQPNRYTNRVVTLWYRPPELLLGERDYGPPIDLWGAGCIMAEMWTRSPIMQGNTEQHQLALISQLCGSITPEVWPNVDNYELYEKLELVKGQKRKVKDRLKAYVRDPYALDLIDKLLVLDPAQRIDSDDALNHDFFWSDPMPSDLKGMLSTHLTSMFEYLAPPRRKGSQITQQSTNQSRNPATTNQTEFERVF
Target sequence in this assay (Q96SW2 whole entry, looked up): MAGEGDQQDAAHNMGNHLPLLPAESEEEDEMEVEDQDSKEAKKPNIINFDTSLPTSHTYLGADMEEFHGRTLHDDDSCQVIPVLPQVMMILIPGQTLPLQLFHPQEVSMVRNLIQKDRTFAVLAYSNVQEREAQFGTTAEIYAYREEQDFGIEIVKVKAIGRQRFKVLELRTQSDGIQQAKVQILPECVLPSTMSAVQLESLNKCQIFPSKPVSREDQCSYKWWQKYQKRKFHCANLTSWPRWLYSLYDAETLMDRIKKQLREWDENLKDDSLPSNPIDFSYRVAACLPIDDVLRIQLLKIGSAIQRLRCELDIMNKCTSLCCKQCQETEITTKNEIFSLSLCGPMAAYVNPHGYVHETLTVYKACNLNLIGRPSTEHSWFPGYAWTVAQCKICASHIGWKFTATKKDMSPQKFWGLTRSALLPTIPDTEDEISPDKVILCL

NCI-H446 = experiment: Antiproliferative activity against human NCI-H446 cells assessed as inhibition of cell growth incubated for 72 hrs by CCK8 assay; assay type: functional, cell-based; settings: NCI-H446, 72 h
[2] = molecular target: T1, Protein cereblon/Cyclin-dependent kinase 9; experiment: PROTAC activity at CRBN/CDK9 in human NCI-H446 cells assessed as induction of CDK9 degradation at 10 nM by Western blot analysis relative to control; assay type: cell-based
Target sequence in this assay (P50750 whole entry, looked up): as the sequence (P50750 whole entry, looked up) above
Target sequence in this assay (Q96SW2 whole entry, looked up): as the sequence (Q96SW2 whole entry, looked up) above

NCI-H69 [3] = experiment: Antiproliferative activity against human NCI-H69 cells assessed as inhibition of cell growth incubated for 72 hrs by CCK8 assay; assay type: functional, cell-based; settings: NCI-H69, 72 h
[4] = Metabolic stability in human liver microsomes assessed as parent compound remaining measured after 60 mins; assay type: ADME, Microsome; settings: read-out: Stability
[5] = Metabolic stability in mouse liver microsomes assessed as intrinsic clearance; assay type: ADME, Microsome; settings: for microsomal CLint: liver microsomes, read-out: CLH
[6] = Kinetic solubility of compound in FeSSIF buffer incubated for 2 hrs by LC-MS/MS analysis; assay type: physicochemical; settings: read-out: Kinetic_solubility
[7] = Efflux ratio of apparent permeability across basolateral to apical over apical to basolateral side in human Caco-2 cells at 2 uM measured after 60 mins by HPLC analysis; assay type: ADME, cell-based
[8] = Metabolic stability in human liver microsomes assessed as half-life; assay type: ADME, Microsome; settings: for half-life: liver microsomes
[9] = Apparent permeability across apical to basolateral side in human Caco-2 cells at 2 uM measured after 60 mins by HPLC analysis; assay type: ADME, cell-based
[10] = Apparent permeability across basolateral to apical side in human Caco-2 cells at 2 uM measured after 60 mins by HPLC analysis; assay type: ADME, cell-based
[11] = molecular target: T1, Protein cereblon/Cyclin-dependent kinase 9; experiment: PROTAC activity at CRBN/CDK9 in human NCI-H69 cells assessed as induction of CDK9 degradation incubated for 8 hrs by Western blot analysis; assay type: cell-based
Target sequence in this assay (P50750 whole entry): as the sequence (P50750 whole entry, looked up) above
Target sequence in this assay (Q96SW2 whole entry): as the sequence (Q96SW2 whole entry, looked up) above

[12] = Metabolic stability in human liver microsomes assessed as intrinsic clearance; assay type: ADME, Microsome; settings: for microsomal CLint: liver microsomes, read-out: CLH
[13] = Metabolic stability in mouse liver microsomes assessed as parent compound remaining measured after 60 mins; assay type: ADME, Microsome; settings: read-out: Stability
[14] = Metabolic stability in mouse liver microsomes assessed as half-life; assay type: ADME, Microsome; settings: for half-life: liver microsomes
[15] = molecular target: CDK6/cyclin D3 (Homo sapiens) (UniProt P30281+Q00534); experiment: Inhibition of CDK6/cyclin D3 (unknown origin) at 10 nM relative to control; assay type: protein-complex assay
NCI-H69 [16] = experiment: Induction of apoptosis in human NCI-H69 cells assessed as increase in cleaved caspase-3 level incubated for 36 hrs by Western blot analysis; assay type: functional, cell-based
[17] = molecular target: CDK3/Cyclin E (Homo sapiens) (UniProt P24864+Q00526); experiment: Inhibition of CDK3/cyclin E1 (unknown origin) at 10 nM relative to control; assay type: protein-complex assay
[18] = molecular target: Cyclin-dependent kinase 4/cyclin D1 (Homo sapiens) (UniProt P11802+P24385); experiment: Inhibition of CDK4/cyclin D1 (unknown origin) at 10 nM relative to control; assay type: protein-complex assay
[19] = molecular target: Cyclin-dependent kinase 1/cyclin B1 (Homo sapiens) (UniProt P06493+P14635); experiment: Inhibition of CDK1/cyclin B1 (unknown origin) at 10 nM relative to control; assay type: protein-complex assay
Cyclin-dependent kinase 1/cyclin B1 (Homo sapiens), sequence (P06493 whole entry, looked up): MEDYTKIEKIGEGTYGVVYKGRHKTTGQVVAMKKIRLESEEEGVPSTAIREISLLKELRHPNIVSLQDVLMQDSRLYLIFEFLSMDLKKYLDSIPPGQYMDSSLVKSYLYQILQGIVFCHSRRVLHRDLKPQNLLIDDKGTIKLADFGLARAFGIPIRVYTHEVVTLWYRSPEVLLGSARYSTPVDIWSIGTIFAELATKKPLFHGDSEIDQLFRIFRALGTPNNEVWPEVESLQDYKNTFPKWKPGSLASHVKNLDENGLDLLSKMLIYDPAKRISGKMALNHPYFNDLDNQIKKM
Cyclin-dependent kinase 1/cyclin B1 (Homo sapiens), sequence (P14635 whole entry, looked up): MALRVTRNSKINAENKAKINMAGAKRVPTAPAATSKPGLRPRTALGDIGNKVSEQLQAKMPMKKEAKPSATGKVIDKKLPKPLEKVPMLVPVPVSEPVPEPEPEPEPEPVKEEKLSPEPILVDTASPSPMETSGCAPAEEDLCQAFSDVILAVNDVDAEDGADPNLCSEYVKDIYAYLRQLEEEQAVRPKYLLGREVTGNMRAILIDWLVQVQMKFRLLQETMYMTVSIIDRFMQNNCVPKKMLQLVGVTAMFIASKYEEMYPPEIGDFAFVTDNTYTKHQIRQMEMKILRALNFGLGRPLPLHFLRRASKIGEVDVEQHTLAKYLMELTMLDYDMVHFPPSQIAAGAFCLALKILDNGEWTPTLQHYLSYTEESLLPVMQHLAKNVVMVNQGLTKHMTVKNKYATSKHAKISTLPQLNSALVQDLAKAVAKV

[20] = molecular target: T2, Cyclin-dependent kinase 5/CDK5 activator 1 (Homo sapiens) (UniProt Q00535+Q15078); experiment: Inhibition of CDK5/p35NCK (unknown origin) at 10 nM relative to control; assay type: protein-complex assay
T2 sequence (Q00535 whole entry): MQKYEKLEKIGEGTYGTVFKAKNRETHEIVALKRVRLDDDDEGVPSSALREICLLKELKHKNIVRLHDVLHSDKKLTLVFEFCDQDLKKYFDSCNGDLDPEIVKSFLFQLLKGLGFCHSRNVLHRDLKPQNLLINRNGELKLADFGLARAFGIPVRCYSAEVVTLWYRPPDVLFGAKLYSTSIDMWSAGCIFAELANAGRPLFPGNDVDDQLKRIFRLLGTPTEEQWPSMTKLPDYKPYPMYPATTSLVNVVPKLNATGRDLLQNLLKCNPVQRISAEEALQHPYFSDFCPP
T2 sequence (Q15078 99-307 partner limits assumed): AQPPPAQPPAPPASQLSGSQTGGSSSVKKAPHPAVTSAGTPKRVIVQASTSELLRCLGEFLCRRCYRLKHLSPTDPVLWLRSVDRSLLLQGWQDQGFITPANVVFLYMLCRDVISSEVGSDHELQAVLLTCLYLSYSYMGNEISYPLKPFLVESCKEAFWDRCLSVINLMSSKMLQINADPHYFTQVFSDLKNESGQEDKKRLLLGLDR

[21] = molecular target: Cyclin-dependent kinase 13/Cyclin-K (Homo sapiens) (UniProt Q14004+O75909); experiment: Inhibition of CDK13/Cyclin K (unknown origin) at 10 nM relative to control; assay type: protein-complex assay
Cyclin-dependent kinase 13/Cyclin-K (Homo sapiens), sequence (O75909 whole entry, looked up): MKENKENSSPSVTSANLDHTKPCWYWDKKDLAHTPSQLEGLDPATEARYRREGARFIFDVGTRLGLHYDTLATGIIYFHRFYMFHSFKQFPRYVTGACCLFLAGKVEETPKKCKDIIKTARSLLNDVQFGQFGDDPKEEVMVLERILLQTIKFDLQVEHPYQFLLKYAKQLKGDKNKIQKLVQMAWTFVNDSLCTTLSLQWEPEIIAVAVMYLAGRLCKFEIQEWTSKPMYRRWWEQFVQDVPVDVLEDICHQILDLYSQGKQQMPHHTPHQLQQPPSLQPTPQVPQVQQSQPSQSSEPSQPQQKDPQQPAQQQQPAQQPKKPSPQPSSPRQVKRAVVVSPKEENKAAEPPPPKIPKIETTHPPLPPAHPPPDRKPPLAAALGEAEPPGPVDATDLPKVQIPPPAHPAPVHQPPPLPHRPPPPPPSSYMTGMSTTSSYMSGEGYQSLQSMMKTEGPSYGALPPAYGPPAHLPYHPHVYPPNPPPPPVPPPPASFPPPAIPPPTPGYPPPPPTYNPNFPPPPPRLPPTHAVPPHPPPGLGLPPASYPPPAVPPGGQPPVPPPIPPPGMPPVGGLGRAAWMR
Cyclin-dependent kinase 13/Cyclin-K (Homo sapiens), sequence (Q14004 whole entry, looked up): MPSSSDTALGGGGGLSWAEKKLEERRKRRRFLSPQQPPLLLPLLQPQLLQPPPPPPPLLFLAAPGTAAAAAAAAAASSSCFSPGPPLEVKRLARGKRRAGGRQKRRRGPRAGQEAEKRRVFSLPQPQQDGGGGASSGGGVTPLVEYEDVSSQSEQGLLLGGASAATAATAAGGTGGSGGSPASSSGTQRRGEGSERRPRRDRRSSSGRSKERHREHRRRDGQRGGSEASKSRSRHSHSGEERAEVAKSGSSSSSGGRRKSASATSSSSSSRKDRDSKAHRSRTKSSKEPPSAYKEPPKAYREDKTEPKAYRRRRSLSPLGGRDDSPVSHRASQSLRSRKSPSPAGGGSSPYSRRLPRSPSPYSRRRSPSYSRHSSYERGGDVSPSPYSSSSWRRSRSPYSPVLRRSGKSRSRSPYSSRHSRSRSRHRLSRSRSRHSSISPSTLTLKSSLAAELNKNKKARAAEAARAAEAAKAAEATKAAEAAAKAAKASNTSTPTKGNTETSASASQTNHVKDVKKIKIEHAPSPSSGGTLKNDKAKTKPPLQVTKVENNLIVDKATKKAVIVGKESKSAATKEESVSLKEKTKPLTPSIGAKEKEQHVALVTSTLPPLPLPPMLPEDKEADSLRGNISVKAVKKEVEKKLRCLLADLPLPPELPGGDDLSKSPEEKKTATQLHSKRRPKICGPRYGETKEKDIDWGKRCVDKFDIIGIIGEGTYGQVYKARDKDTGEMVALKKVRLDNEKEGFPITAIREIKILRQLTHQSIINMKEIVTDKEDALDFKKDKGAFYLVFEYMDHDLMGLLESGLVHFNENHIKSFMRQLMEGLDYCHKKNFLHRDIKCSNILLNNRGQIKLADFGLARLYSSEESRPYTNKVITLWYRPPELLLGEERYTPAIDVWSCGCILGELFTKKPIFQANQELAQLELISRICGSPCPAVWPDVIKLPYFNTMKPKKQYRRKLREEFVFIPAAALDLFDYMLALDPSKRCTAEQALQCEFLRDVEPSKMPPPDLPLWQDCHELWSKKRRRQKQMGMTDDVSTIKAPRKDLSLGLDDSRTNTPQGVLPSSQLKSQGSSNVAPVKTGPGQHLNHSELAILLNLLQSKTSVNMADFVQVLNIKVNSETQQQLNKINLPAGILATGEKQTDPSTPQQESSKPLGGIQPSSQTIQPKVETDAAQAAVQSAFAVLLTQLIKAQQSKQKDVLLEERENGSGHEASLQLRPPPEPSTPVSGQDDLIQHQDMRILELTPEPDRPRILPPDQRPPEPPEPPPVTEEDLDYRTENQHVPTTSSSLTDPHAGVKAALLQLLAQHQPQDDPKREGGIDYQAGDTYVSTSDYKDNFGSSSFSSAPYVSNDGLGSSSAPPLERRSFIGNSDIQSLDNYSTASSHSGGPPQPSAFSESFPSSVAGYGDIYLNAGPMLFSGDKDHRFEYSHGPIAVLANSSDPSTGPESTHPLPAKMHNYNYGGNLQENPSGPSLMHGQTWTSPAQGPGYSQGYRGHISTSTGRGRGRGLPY

[22] = molecular target: CDK12/Cyclin K (Homo sapiens) (UniProt O75909+Q9NYV4); experiment: Inhibition of CDK12/Cyclin K (unknown origin) at 10 nM relative to control; assay type: protein-complex assay
[23] = molecular target: CDK9/cyclin T1 (Homo sapiens) (UniProt O60563+P50750); experiment: Inhibition of CDK9/Cyclin T1 (unknown origin) at 10 nM relative to control; assay type: protein-complex assay
[24] = molecular target: CDK6/cyclin D1 (Homo sapiens) (UniProt P24385+Q00534); experiment: Inhibition of CDK6/cyclin D1 (unknown origin) at 10 nM relative to control; assay type: protein-complex assay
NCI-H69 [25] = experiment: Induction of apoptosis in human NCI-H69 cells assessed as increase in p53 level incubated for 36 hrs by Western blot analysis; assay type: functional, cell-based
NCI-H69 [26] = experiment: Induction of apoptosis in human NCI-H69 cells assessed as decrease in MCL-1 expression incubated for 36 hrs by Western blot analysis; assay type: functional, cell-based
[27] = molecular target: CDK4/Cyclin D3 (Homo sapiens) (UniProt P11802+P30281); experiment: Inhibition of CDK4/cyclin D3 (unknown origin) at 10 nM relative to control; assay type: protein-complex assay
NCI-H69 [28] = experiment: Induction of apoptosis in human NCI-H69 cells assessed as increase in cleaved PARP level incubated for 36 hrs by Western blot analysis; assay type: functional, cell-based
[29] = molecular target: T2, Cyclin-dependent kinase 5/CDK5 activator 1 (Homo sapiens); experiment: Inhibition of CDK5/p25NCK (unknown origin) at 10 nM relative to control; assay type: protein-complex assay
NCI-H69 [30] = experiment: Induction of apoptosis in human NCI-H69 cells assessed as decrease in BCL-2 expression incubated for 36 hrs by Western blot analysis; assay type: functional, cell-based

Structure (SMILES)	Activity [1] [%]	IC50 (NCI-H446) [nM]	Activity [2] [%]	IC50 (NCI-H69 [3]) [nM]	further results
O=C1CCC(N2C(=O)c3cccc(NCCCCCCN4CCC(NC(=O)c5n[nH]cc5NC(=O)c5c(Cl)cccc5Cl)CC4)c3C2=O)C(=O)N1 (centres undefined)	34	54.2	39.4	95.3	
O=C1CCC(N2C(=O)c3ccc(N4CCN(CC5CCN(CC(=O)N6CCC(NC(=O)c7n[nH]cc7NC(=O)c7c(Cl)cccc7Cl)CC6)CC5)CC4)cc3C2=O)C(=O)N1 (centres undefined)	89.1	2.6	83.9	1.3	remaining at 1 h [4]: 24.3%; microsomal CLint [5]: 11 µL/min/mg; solubility kinetic at 2 h [6]: 9.08 µM (≈ 7.83 µg/mL); efflux ratio at 1 h, 2 µM [7]: 16.2; half-life [8]: 30.4 min; Papp A→B at 1 h, 2 µM [9]: 0.326 ×10⁻⁶ cm/s; Papp B→A at 1 h, 2 µM [10]: 5.27 ×10⁻⁶ cm/s; DC50 [11]: 3.8 nM; microsomal CLint [12]: 46 µL/min/mg; remaining at 1 h [13]: 71.9%; half-life [14]: 126 min
Cl.O=C1CCC(Nc2cccc(N3CCN(CC4CCN(CC(=O)N5CCC(NC(=O)c6n[nH]cc6NC(=O)c6c(Cl)cccc6Cl)CC5)CC4)CC3)c2)C(=O)N1 (centres undefined)					solubility kinetic at 2 h [6]: 290 µM
O=C(O)Cc1ccccc1Nc1c(Cl)cccc1Cl [DICLOFENAC]					solubility kinetic at 2 h [6]: 316 µM (≈ 93.6 µg/mL)
CC(C)NCC(O)COc1cccc2ccccc12 (centres undefined) [PROPRANOLOL]					efflux ratio at 1 h, 2 µM [7]: 1.6; Papp A→B at 1 h, 2 µM [9]: 9.64 ×10⁻⁶ cm/s; Papp B→A at 1 h, 2 µM [10]: 15.4 ×10⁻⁶ cm/s
O=C(NC1CCNCC1)c1n[nH]cc1NC(=O)c1c(Cl)cccc1Cl [AT-7519]		173		186	inhibition [15]: 20%; Activity (NCI-H69 [16]): Dose-dependent-effect; inhibition [17]: 16%; inhibition [18]: 36%; inhibition [19]: 31%; inhibition [20]: 20%; inhibition [21]: 36%; inhibition [22]: 29%; inhibition [23]: 79%; inhibition [24]: 34%; Activity (NCI-H69 [25]): Dose-dependent-effect; Activity (NCI-H69 [26]): Dose-dependent-effect; inhibition [27]: 47%; Activity (NCI-H69 [28]): Dose-dependent-effect; inhibition [29]: 26%; Activity (NCI-H69 [30]): Dose-dependent-effect
O=C1CCC(N2C(=O)c3ccc(N4CCN(C(=O)CN5CCC(NC(=O)c6n[nH]cc6NC(=O)c6c(Cl)cccc6Cl)CC5)CC4)cc3C2=O)C(=O)N1 (centres undefined)	44.2	17.9	51.9	53.8	
Cc1ncc2n1-c1ccc(Cl)cc1C(c1ccccc1F)=NC2 [MIDAZOLAM]					CLH ([5]; microsomes): 1270 µL/min/mg; t1/2 ([8]; microsomes): 2.9 min; CLH ([12]; microsomes): 1200 µL/min/mg; t1/2 ([14]; microsomes): 2.72 min
O=C1CCC(N2C(=O)c3ccc(N4CCN(C(=O)CCCC(=O)N5CCC(NC(=O)c6n[nH]cc6NC(=O)c6c(Cl)cccc6Cl)CC5)CC4)cc3C2=O)C(=O)N1 (centres undefined)	3.8	352	3.22	261	
O=C1CCC(N2C(=O)c3ccc(N4CCN(CC(=O)N5CCC(CN6CCC(NC(=O)c7n[nH]cc7NC(=O)c7c(Cl)cccc7Cl)CC6)CC5)CC4)cc3C2=O)C(=O)N1 (centres undefined)	86.1	2.01	81.3	4.82	remaining at 1 h [4]: 1.2%; microsomal CLint [5]: 16.2 µL/min/mg; half-life [8]: 4.75 min; DC50 [11]: 8.97 nM; microsomal CLint [12]: 292 µL/min/mg; remaining at 1 h [13]: 61.1%; half-life [14]: 85.6 min
CN1C(=O)CCC(Nc2cccc(N3CCN(CC4CCN(CC(=O)N5CCC(NC(=O)c6n[nH]cc6NC(=O)c6c(Cl)cccc6Cl)CC5)CC4)CC3)c2)C1=O (centres undefined)	12.3	592	3.15	501	
O=C1CCC(N2C(=O)c3cccc(NCCCCCCCN4CCC(NC(=O)c5n[nH]cc5NC(=O)c5c(Cl)cccc5Cl)CC4)c3C2=O)C(=O)N1 (centres undefined)	10.6	62.9	21.3	179	
O=C1CCC(N2C(=O)c3ccc(N4CCN(C(=O)CCC(=O)N5CCC(NC(=O)c6n[nH]cc6NC(=O)c6c(Cl)cccc6Cl)CC5)CC4)cc3C2=O)C(=O)N1 (centres undefined)	39.1	31.7	31.8	42.5	
O=C1CCC(N2C(=O)c3cccc(NCCCCCC(=O)N4CCC(NC(=O)c5n[nH]cc5NC(=O)c5c(Cl)cccc5Cl)CC4)c3C2=O)C(=O)N1 (centres undefined)	17.1	> 1000	27.1	> 1000	
O=C1CCC(N2C(=O)c3ccc(N4CCN(CC5CCN(C(=O)CN6CCC(NC(=O)c7n[nH]cc7NC(=O)c7c(Cl)cccc7Cl)CC6)CC5)CC4)cc3C2=O)C(=O)N1 (centres undefined)	88.4	3.7	78.2	6.46	remaining at 1 h [4]: 3.2%; microsomal CLint [5]: 16.4 µL/min/mg; half-life [8]: 6.17 min; DC50 [11]: 4.5 nM; microsomal CLint [12]: 225 µL/min/mg; remaining at 1 h [13]: 61.2%; half-life [14]: 84.5 min
O=C(CNc1cccc2c1C(=O)N(C1CCC(=O)NC1=O)C2=O)NCCCCCCCCCCC(=O)N1CCC(NC(=O)c2n[nH]cc2NC(=O)c2c(Cl)cccc2Cl)CC1 (centres undefined)	21.8	148	27.9	161	
O=C1CCC(Nc2ccc(N3CCN(CC4CCN(CC(=O)N5CCC(NC(=O)c6n[nH]cc6NC(=O)c6c(Cl)cccc6Cl)CC5)CC4)CC3)cc2)C(=O)N1 (centres undefined)	88.9	35.3	74.1	11	remaining at 1 h [4]: 64.7%; microsomal CLint [5]: 10.2 µL/min/mg; half-life [8]: 58.8 min; DC50 [11]: 5.67 nM; microsomal CLint [12]: 26 µL/min/mg; remaining at 1 h [13]: 72%; half-life [14]: 136 min
O=C1CCC(N2C(=O)c3ccc(N4CCN(C(=O)CN5CCC(CN6CCC(NC(=O)c7n[nH]cc7NC(=O)c7c(Cl)cccc7Cl)CC6)CC5)CC4)cc3C2=O)C(=O)N1 (centres undefined)	51.5	18.1	49.9	5.75	
O=C1CCC(N2C(=O)c3ccc(N4CCC(OC(=O)CN5CCC(NC(=O)c6n[nH]cc6NC(=O)c6c(Cl)cccc6Cl)CC5)CC4)cc3C2=O)C(=O)N1 (centres undefined)	25.2	> 1000	18.6	268	
O=C1CCC(N2C(=O)c3cccc(NCCCCC(=O)N4CCC(NC(=O)c5n[nH]cc5NC(=O)c5c(Cl)cccc5Cl)CC4)c3C2=O)C(=O)N1 (centres undefined)	3.91	772	9.92	> 1000	
O=C1CCC(Nc2ccc(N3CCN(CC4CCN(CC(=O)N5CCC(NC(=O)c6n[nH]cc6NC(=O)c6c(Cl)cccc6Cl)CC5)CC4)CC3)c(F)c2)C(=O)N1 (centres undefined)	66.1	56.1	79.3	44.2	
O=C1CCC(N2C(=O)c3ccc(N4CCN(CC(=O)N5CCC(NC(=O)c6n[nH]cc6NC(=O)c6c(Cl)cccc6Cl)CC5)CC4)cc3C2=O)C(=O)N1 (centres undefined)	45.5	349	30.9	726	
O=C1CCC(N2C(=O)c3cccc(NCCCCCN4CCC(NC(=O)c5n[nH]cc5NC(=O)c5c(Cl)cccc5Cl)CC4)c3C2=O)C(=O)N1 (centres undefined)	8.01	136	12.8	217	
O=C1CCC(N2C(=O)c3cccc(NCCCCCCC(=O)N4CCC(NC(=O)c5n[nH]cc5NC(=O)c5c(Cl)cccc5Cl)CC4)c3C2=O)C(=O)N1 (centres undefined)	0.132	> 1000	11.2	> 1000	
O=C1CCC(N2C(=O)c3ccc(N4CC5CN(CC(=O)N6CCC(NC(=O)c7n[nH]cc7NC(=O)c7c(Cl)cccc7Cl)CC6)CC5C4)cc3C2=O)C(=O)N1 (centres undefined)	49.4	156	38.9	142	

Source: ChEMBL document CHEMBL6121063, “Identification of a Potent and Selective CDK9 Degrader as a Targeted Therapeutic Option for the Treatment of Small-Cell Lung Cancer” (J Med Chem, 2025)
